# Experimental data reported in patent publication US20250129021A1, “SMALL MOLECULE PROTEIN SYNTHESIS MODULATORS” (Interdict Bio, Inc., priority 2023, published 2025).
# Like-named read-outs stand apart in the source and are kept apart here.
# Assays:
# JAK1 = assay: In vitro transcription-translation (IVTT) assay, JAK1 reporter; format: biochemical; conditions: HeLa S3 lysate, sfGFP/mCherry ratio
# Protocol: (§1) In vitro transcription-translation assay setup: Each assay includes a master mix containing lysate and shared components, a 96-well plate containing compound titrations for testing, a 96-well DNA plate with reporter constructs to be tested, 96-well skirted PCR plates, and 96-well flat-bottom, black, fluorescent assay plates. Reaction materials setup: (A) Master mix—15 mL conical tube (3 mL of HeLa S3 Lysate described above; 0.6 mL of ThermoFisher Accessory Proteins (#88882); 1.2 ml of ThermoFisher Reaction Mix (#88882); 0.54 mL of nuclease-free Water); (B) 96-Well Master Mix+Compound Plate (Half-log dilutions (30 μM−0.1 μM) of 4 compounds of interest are prepared in 100% DMSO); 96-Well DNA Plate (Five DNA constructs are plated into single columns within the plate. Row 1 of the column contains nuclease free H2O, all other wells contain 110 ng/μL plasmid DNA). Reactions are started by mixing 155 μL of master mix and 3.5 μL of compound serial dilutions, then 9.1 μL of master mix+compound mixture is aliquoted across 5 96-well plates. Reactions begin with final addition of 2 μL of DNA for a 11.1 μL reaction volume in each well. The entire plate is sealed, and incubated for 2 hrs at 30° C. After 2 hrs, quench the assay using 45 μL of PBS, and transfer 50 μL to a flat-bottom black microplate Quantify the sfGFP and mCherry signals from each well on each plate, taking 3 reads of each plate, and perform data analysis below.
# (§2) In vitro transcription-translation assay data analysis: Each plate is read three times in channels for both sfGFP and mCherry signals. The average signal across these 3 reads is then calculated for further analysis. Control wells containing no DNA reporter are subtracted from reporter wells in the same column to remove auto-fluorescence of the lysate. Then, the ratio of sfGFP/mCherry is calculated per well, and these ratios are averaged across the triplicate experiments on the same plate. Finally, the ratio of each titration concentration is normalized to the no drug control to create the normalized stalling metric. The error on this measurement is determined by propagating error through the averaging and normalization steps. Values are plotted and fit for IC50 determination for each test sequence and titration of compound.
# NFKB1 = assay: In vitro transcription-translation (IVTT) assay, NFKB1 reporter; format: biochemical; conditions: HeLa S3 lysate, sfGFP/mCherry ratio
# In short: (§3)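 Cell-free HeLa S3 lysate reactions expressing sfGFP/mCherry reporter constructs ran 2 h at 30 °C with compound from half-log DMSO series (30 μM–0.1 μM as prepared), then were quenched with PBS. No-DNA background was subtracted, and the sfGFP/mCherry ratio was normalized to the no-drug control and fit for IC50.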
# MYC = assay: In vitro transcription-translation (IVTT) assay, MYC reporter; format: biochemical; conditions: HeLa S3 lysate, 2 hrs at 30° C.
# In short: (§4)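 Reporter: mCherry, P2A, then 3×FLAG-target peptide-sfGFP fusion, IRES-initiated; HeLa S3 lysate IVTT; cpd dilutions 30 μM−0.1 μM half-log in 100% DMSO (dilution-plate conc); DNA added last; 2 h, 30° C; PBS quench.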
# STING = assay: In vitro transcription-translation (IVTT) assay, STING reporter; format: biochemical; conditions: HeLa S3 lysate, sfGFP/mCherry ratio
# Protocol: as §1, §2
# MCL-1 = assay: In vitro transcription-translation (IVTT) assay, MCL-1 reporter; format: biochemical; conditions: HeLa S3 lysate, sfGFP/mCherry ratio
# In short: as §4
# CCND1 = assay: In vitro transcription-translation (IVTT) assay, CCND1 reporter; format: biochemical; conditions: HeLa S3 lysate, sfGFP/mCherry ratio
# In short: as §4
# CCNTB1 = assay: In vitro transcription-translation (IVTT) assay, CCNTB1 reporter; format: biochemical; conditions: HeLa S3 lysate, sfGFP/mCherry ratio
# In short: as §3
# cGAS = assay: In vitro transcription-translation (IVTT) assay, cGAS reporter; format: biochemical; conditions: HeLa S3 lysate, sfGFP/mCherry ratio
# Protocol: as §1, §2
# HEK 293T = assay: Cell viability (CellTiter-Fluor), HEK 293T; format: cell-based; conditions: Homo sapiens, 24-72 hrs
# Protocol: (§5) Count and dispense 2,000-10,000 cells per well (100 μL volume) in black 96-well tissue culture microplate and let cells adhere overnight. Add compound dissolved in 100% DMSO to each well as needed and incubate cells in standard culture conditions for 24-72 hrs. Final DMSO concentration in each well should be 0.1-0.5%. At the desired time point, gently aspirate compound containing media and replace with PBS to wash. Repeat wash step for 2 total washes. Remove PBS and add 100 μL CellTiter-Fluor reagent (Promega) reagent to each well. Seal plate and incubate 1 hr at room temperature with orbital shaking. Analyze fluorescence using plate reader to quantify viable cells compared with vehicle (DMSO) control.
# MCF7 = assay: Cell viability (CellTiter-Fluor), MCF7; format: cell-based; conditions: Homo sapiens, 24-72 hrs
# Protocol: as §5
# BCL-2 = assay: In vitro transcription-translation (IVTT) assay, BCL-2 reporter; format: biochemical; conditions: HeLa S3 lysate, sfGFP/mCherry ratio, 2 hrs at 30° C.
# In short: as §4
# KLE = assay: Cell viability (CellTiter-Fluor), KLE; format: cell-based; conditions: Homo sapiens, 24-72 hrs
# Protocol: as §5
# HPAF-II = assay: Cell viability (CellTiter-Fluor), HPAF-II; format: cell-based; conditions: Homo sapiens, 24-72 hrs
# Protocol: as §5
# NCI-H1915 = assay: Cell viability (CellTiter-Fluor), NCI-H1915; format: cell-based; conditions: 24-72 hrs
# Protocol: as §5
# HEPG2 = assay: Cell viability (CellTiter-Fluor), HEPG2; format: cell-based; conditions: Homo sapiens, 24-72 hrs
# Protocol: as §5
# LS411N = assay: Cell viability (CellTiter-Fluor), LS411N; format: cell-based; conditions: Homo sapiens, LS-411N, 24-72 hrs
# Protocol: as §5
# KRAS G12D = assay: In vitro transcription-translation (IVTT) assay, KRAS G12D reporter; format: biochemical; conditions: HeLa S3 lysate, sfGFP/mCherry ratio, 2 hrs at 30° C.
# In short: as §4
# ALK = assay: In vitro transcription-translation (IVTT) assay, ALK reporter; format: biochemical; conditions: HeLa S3 lysate, sfGFP/mCherry ratio, 2 hrs at 30° C.
# In short: as §4
Structure (SMILES),IC50 (HEK 293T) [µM],IC50 (MCL-1; 2 hrs at 30° C.) [µM],IC50 (MCF7) [µM],IC50 (CCND1; 2 hrs at 30° C.) [µM],IC50 (BCL-2) [µM],IC50 (MYC; sfGFP/mCherry ratio) [µM],IC50 (HPAF-II) [µM],IC50 (NCI-H1915) [µM],IC50 (LS411N) [µM],other results
"O=C(NCc1cccc(F)c1)O[C@@H]1[C@@H](O)CN[C@@H]1Cc1ccc(-c2cnc(C(F)(F)F)s2)cc1 [V192114, (2R,3S,4S)-4-hydroxy-2-({4-[2-(trifluoromethyl)-1,3-thiazol-5-yl]phenyl}methyl)pyrrolidin-3-yl N-[(3-fluorophenyl)methyl]carbamate]",–,–,–,–,–,–,–,–,–,"IC50 (JAK1): 10 to 20 µM; IC50 (NFKB1): < 10 µM; IC50 (MYC; IVTT assay, MYC reporter, normalized sfGFP/mCherry ratio, half-log dilutions 30 μM-0.1 μM): > 30 µM; IC50 (STING): > 30 µM; IC50 (MCL-1; IVTT assay, read-out: MCL1 IC50): > 30 µM; IC50 (CCND1; IVTT assay): > 30 µM; IC50 (CCNTB1): > 30 µM; IC50 (cGAS): < 10 µM"
"CNC(=O)CNC(=O)O[C@@H]1[C@@H](O)CN[C@@H]1Cc1ccc(OC)cc1 [V188017, (2R,3S,4S)-4-hydroxy-2-[(4-methoxyphenyl)methyl]pyrrolidin-3-yl N-[(methylcarbamoyl)methyl]carbamate]",1 to 4,< 10,1 to 4,10 to 20,10 to 20,–,–,–,–,–
"COc1ccc(C[C@H]2NC[C@H](O)[C@H]2OC(=O)NCCNc2ncc[nH]2)cc1 [V187825, (2R,3S,4S)-4-hydroxy-2-[(4-methoxyphenyl)methyl]pyrrolidin-3-yl N-[2-(1H-imidazol-2-ylamino)ethyl]carbamate]",≥ 4,10 to 20,≥ 4,10 to 20,20 to 30,20 to 30,–,–,–,–
COc1ccc(C[C@H]2NC[C@H](O)[C@H]2OC(=O)NCC[C@H]2CCNC2)cc1 [Cmpd V187879],≥ 4,< 10,1 to 4,< 10,10 to 20,< 10,–,–,–,–
"COc1ccc(C[C@H]2NC[C@H](O)[C@H]2OC(=O)NCc2ccnc(N)c2)cc1 [V187988, (2R,3S,4S)-4-hydroxy-2-[(4-methoxyphenyl)methyl]pyrrolidin-3-yl N-[(2-aminopyridin-4-yl)methyl]carbamate]",0.25 to 1,< 10,0.25 to 1,< 10,< 10,< 10,1 to 4,0.25 to 1,0.25 to 1,IC50 (KLE): 0.25 to 1 µM; IC50 (HEPG2): ≥ 4 µM
"COc1ccc(C[C@H]2NC[C@H](O)[C@H]2OC(=O)NC[C@@H]2CCNC2)cc1 [V187685, (2R,3S,4S)-4-hydroxy-2-[(4-methoxyphenyl)methyl]pyrrolidin-3-yl N-[(3R)-pyrrolidin-3-ylmethyl]carbamate]",≥ 4,< 10,1 to 4,–,10 to 20,< 10,–,–,–,IC50 (KRAS G12D): 10 to 20 µM
"COc1ccc(C[C@H]2NC[C@H](O)[C@H]2OC(=O)NC[C@H]2CCNC2)cc1 [V187686, (2R,3S,4S)-4-hydroxy-2-(4-methoxybenzyl)pyrrolidin-3-yl (((S)-pyrrolidin-3-yl)methyl)carbamate]",≥ 4,–,1 to 4,10 to 20,–,< 10,≥ 4,≥ 4,≥ 4,IC50 (ALK): < 10 µM; IC50 (KRAS G12D): 10 to 20 µM
"COc1ccc(C[C@H]2NC[C@H](O)[C@H]2OC(=O)NCc2cc[nH]c(=O)c2)cc1 [V188053, (2R,3S,4S)-4-hydroxy-2-[(4-methoxyphenyl)methyl]pyrrolidin-3-yl N-[(2-oxo-1H-pyridin-4-yl)methyl]carbamate]",1 to 4,< 10,1 to 4,< 10,–,< 10,1 to 4,1 to 4,1 to 4,IC50 (KLE): 1 to 4 µM
COc1ccc(C[C@H]2NC[C@H](O)[C@H]2OC(=O)NCCc2cnc(N)[nH]2)cc1 [Cmpd V187594],≥ 4,< 10,1 to 4,< 10,–,< 10,–,–,–,–
"COc1ccc(C[C@H]2NC[C@H](O)[C@H]2OC(=O)NCCn2ccnc2)cc1 [V187819, (2R,3S,4S)-4-hydroxy-2-[(4-methoxyphenyl)methyl]pyrrolidin-3-yl N-[2-(imidazol-1-yl)ethyl]carbamate]",≥ 4,< 10,1 to 4,< 10,–,< 10,–,–,–,IC50 (ALK): < 10 µM
"COc1ccc(C[C@H]2NC[C@H](O)[C@H]2OC(=O)NCC[C@@H]2CCNC2)cc1 [V187878, (2R,3S,4S)-4-hydroxy-2-[(4-methoxyphenyl)methyl]pyrrolidin-3-yl N-{2-[(3S)-pyrrolidin-3-yl]ethyl}carbamate]",≥ 4,< 10,0.25 to 1,–,10 to 20,< 10,≥ 4,≥ 4,1 to 4,IC50 (KLE): ≥ 4 µM; IC50 (HEPG2): 1 to 4 µM
"COc1ccc(C[C@H]2NC[C@H](O)[C@H]2OC(=O)NCCNc2nccs2)cc1 [V187826, (2R,3S,4S)-4-hydroxy-2-[(4-methoxyphenyl)methyl]pyrrolidin-3-yl N-[2-(1,3-thiazol-2-ylamino)ethyl]carbamate]",1 to 4,10 to 20,1 to 4,20 to 30,20 to 30,< 10,–,–,–,–
"COc1ccc(C[C@H]2NC[C@H](O)[C@H]2OC(=O)NCc2ccnnc2)cc1 [V187917, (2R,3S,4S)-4-hydroxy-2-[(4-methoxyphenyl)methyl]pyrrolidin-3-yl N-(pyridazin-4-ylmethyl)carbamate]",< 0.25,< 10,0.25 to 1,< 10,< 10,< 10,1 to 4,0.25 to 1,0.25 to 1,IC50 (KLE): 0.25 to 1 µM; IC50 (HEPG2): 1 to 4 µM
"COc1ccc(C[C@H]2NC[C@H](O)[C@H]2OC(=O)NCCc2ccncc2C#N)cc1 [V187940, (2R,3S,4S)-4-hydroxy-2-[(4-methoxyphenyl)methyl]pyrrolidin-3-yl N-[2-(3-cyanopyridin-4-yl)ethyl]carbamate]",0.25 to 1,< 10,1 to 4,< 10,< 10,< 10,–,–,–,–
COc1ccc(C[C@H]2NC[C@H](O)[C@H]2OC(=O)NCCc2cnn[nH]2)cc1 [Cmpd V187783],0.25 to 1,< 10,1 to 4,–,< 10,< 10,–,–,–,–
